# What was measured:
# Landoltia sp. = settings: acute; duration: 7 days; growth
# Daphnia magna = settings: chronic/long-term; duration: 21 days; reproduction
# Colinus virginianus = settings: for LD50: acute, oral, mortality
# Oryctolagus sp. = settings: developmental; development
# Rattus norvegicus = settings: for NOAEL: chronic
# Oncorhynchus mykiss = settings: chronic/long-term; duration: 96 days; mortality
# Tagia sp. = settings: acute; duration: 14 days; mortality
# Apis mellifera = settings: acute, duration: 48 hours, mortality
structure (smiles),measurement,setting,value
Cc1c(C(=O)c2c[nH]n(C)c2=O)ccc(S(C)(=O)=O)c1C1=NOCC1 [Topramezone],NOEC,Landoltia sp.,0.001 mg/L
same,NOEC,Daphnia magna,50 mg/L
same,LD50,Colinus virginianus; diet,> 1080 mg/kg-day
same,LD50,Colinus virginianus,> 2000 mg/kg-day
same,NOEL,"Colinus virginianus; reproduction developmental, reproduction",19.4 mg/kg-day
same,NOAEL,Oryctolagus sp.,0.5 mg/kg-day
same,LD50,"Rattus norvegicus; acute, oral, mortality",> 2000 mg/kg-day
same,NOAEL,Rattus norvegicus; F,0.4 mg/kg-day
same,NOAEL,Rattus norvegicus; M,0.3 mg/kg-day
same,NOAEL,"Rattus norvegicus; duration: 2 years, F, histopathology: neoplastic",0.4 mg/kg-day
same,NOAEC,Oncorhynchus mykiss,3.2 mg/L
same,LC50,Tagia sp.,> 1000 mg/kg
same,LD50,Apis mellifera; dermal,> 100 µg/piece
same,LD50,"Apis mellifera; oral, unspecified",> 72 µg/piece

# — EPA's ToxValDB 9.5 (doi:10.2903/j.efsa.2014.3540)
